Consider 22 compounds from PubChem BioAssay AID330 (DTP/NCI, 2004).

Where “and” joins values, the source holds several entries; their conditions need not be identical. Identical values can stand only once. Inconclusive results and toxic doses are left out.

In the experiment the test system is P388 leukemia ip, CD2F1 mice, survival T/C. Description: NCI In Vivo Anticancer Drug Screen. Data for tumor model P388 Leukemia (intraperitoneal) in CD2F1 (CDF1) mice. Conditions: endpoint: median survival time, higher = longer survival. The essentials:
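Mice carrying the transplanted tumor received test compound or vehicle. Survival was recorded in each group, and the value is the treated-group measurement divided by that of the vehicle-treated control group.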

Where [1] appears, read: dose: 100.0 mg/kg/injection, schedule: Q04DX003 (ip), vehicle: saline.
[2] abbreviates: dose: 50.0 mg/kg/injection, schedule: Q01DX009 (ip), vehicle: suspension in saline.
The mark [3] stands for this setting: dose: 100.0 mg/kg/injection, schedule: Q01DX009 (ip), vehicle: suspension in saline.
Setting [4] is: dose: 200.0 mg/kg/injection, schedule: Q01DX009 (ip), vehicle: suspension in saline.
[5] abbreviates: dose: 50.0 mg/kg/injection, schedule: Q01DX009 (ip), vehicle: saline with Tween-80.
[6] abbreviates: dose: 100.0 mg/kg/injection, schedule: Q01DX009 (ip), vehicle: saline with Tween-80.
[7] abbreviates: dose: 400.0 mg/kg/injection, schedule: Q01DX009 (ip), vehicle: saline with Tween-80.
The mark [8] stands for this setting: dose: 100.0 mg/kg/injection, schedule: Q04DX002 (ip), vehicle: saline with Tween-80.
Where [9] appears, read: dose: 100.0 mg/kg/injection, schedule: Q01DX001 (ip), vehicle: Klucel (hydroxypropylcellulose) (HPC).
Where [10] appears, read: dose: 200.0 mg/kg/injection, schedule: Q01DX001 (ip), vehicle: Klucel (hydroxypropylcellulose) (HPC).
[11] abbreviates: dose: 25.0 mg/kg/injection, schedule: Q01DX009 (ip), vehicle: saline.
Where [12] appears, read: dose: 200.0 mg/kg/injection, schedule: Q01DX009 (ip), vehicle: saline with Tween-80.

`CC12CCC(=O)N1C(C(=O)O)CS2` (stereo not given): the T/C is 119 % of control (dose: 12.5 mg/kg/injection, schedule: Q04DX003 (ip), vehicle: saline); 99 % of control and 106 % of control (dose: 25.0 mg/kg/injection, schedule: Q04DX003 (ip), vehicle: saline); 102 % of control and 109 % of control and 97 % of control (dose: 50.0 mg/kg/injection, schedule: Q04DX003 (ip), vehicle: saline); 98 % of control and 123 % of control and 97 % of control under setting [1]; 107 % of control (dose: 200.0 mg/kg/injection, schedule: Q04DX003 (ip), vehicle: saline); 91 % of control (dose: 400.0 mg/kg/injection, schedule: Q04DX003 (ip), vehicle: saline).
`[NH-]C(Cc1cnc[n-]1)C(=O)O.[NH-]C(Cc1cnc[n-]1)C(=O)O.[O]=[Mo]1[O][Mo](=[O])[O]1` (stereo not given): the T/C was 99 % of control under setting [2], 99 % of control under setting [3] and 99 % of control under setting [4].
Take `CN1C(=O)C(=Cc2ccc(O)cc2)C(=O)N(C)C1=O`: the T/C is, setting by setting: under setting [5], 112 % of control and 113 % of control; under setting [6], 118 % of control and 123 % of control; under setting [7], 86 % of control.
As to `CC1(C)C=C(C(=O)ON2C(=O)CCC2=O)C(C)(C)N1O`, the T/C is, setting by setting: (dose: 50.0 mg/kg/injection, schedule: Q01DX009 (ip), vehicle: Klucel (hydroxypropylcellulose) (HPC)) 113 % of control; (dose: 100.0 mg/kg/injection, schedule: Q01DX009 (ip), vehicle: Klucel (hydroxypropylcellulose) (HPC)) 106 % of control.
Turning to `COc1ccc(CSC(=S)Nc2ccc(Br)c(C)c2)cc1`, the T/C runs as follows: under setting [2], 96 % of control; under setting [3], 101 % of control; under setting [4], 109 % of control.
In the case of `CN(C(=O)NCCCl)C1=NC(O)(c2ccccc2)C(c2ccccc2)=N1` (stereo not given), the T/C under setting [8] is 106 % of control; the T/C (dose: 200.0 mg/kg/injection, schedule: Q04DX002 (ip), vehicle: saline with Tween-80) is 113 % of control; the T/C (dose: 400.0 mg/kg/injection, schedule: Q04DX002 (ip), vehicle: saline with Tween-80) is 112 % of control.
As for `O=C(O)CCC(=O)NC1C(NNC(=O)c2cccnc2)OC(CO)C(O)C1O` (stereo not given), the T/C is, setting by setting: (dose: 50.0 mg/kg/injection, schedule: Q01DX005 (ip), vehicle: saline with Tween-80) 101 % of control; (dose: 100.0 mg/kg/injection, schedule: Q01DX005 (ip), vehicle: saline with Tween-80) 95 % of control; (dose: 200.0 mg/kg/injection, schedule: Q01DX005 (ip), vehicle: saline with Tween-80) 101 % of control.
`CCC(CC)c1ccccn1`: the T/C (dose: 100.0 mg/kg/injection, schedule: Q01DX009 (ip), vehicle: saline) is 101 % of control; the T/C under setting [1] is 122 % of control; the T/C (dose: 200.0 mg/kg/injection, schedule: Q01DX009 (ip), vehicle: saline) was 105 % of control.
`COc1ccc(-n2c(=O)c(N=Nc3ccc(C)cc3)c(O)n(-c3ccccc3Cl)c2=S)cc1`: the T/C (dose: 50.0 mg/kg/injection, schedule: Q01DX001 (ip), vehicle: Klucel (hydroxypropylcellulose) (HPC)) was 96 % of control; the T/C under setting [9] is 99 % of control; the T/C under setting [10] was 96 % of control.
For `O=C(O)[C@@H](NC(=O)C(Cl)(Cl)Cl)[C@@H]1CC(Br)=NO1`, the T/C (dose: 15.0 mg/kg/injection, schedule: Q01DX005 (ip), vehicle: distilled water + Tween-80) is 107 % of control and 118 % of control and 122 % of control; the T/C (dose: 30.0 mg/kg/injection, schedule: Q01DX005 (ip), vehicle: distilled water + Tween-80) is 107 % of control; the T/C (dose: 120.0 mg/kg/injection, schedule: Q01DX005 (ip), vehicle: distilled water + Tween-80) is 114 % of control and 98 % of control.
`CC(O)C([NH-])C(=O)O.CC([NH-])C(=O)O.[Cu+2]` (stereo not given): the T/C runs as follows: (dose: 6.25 mg/kg/injection, schedule: Q01DX009 (ip), vehicle: saline) 94 % of control; (dose: 12.5 mg/kg/injection, schedule: Q01DX009 (ip), vehicle: saline) 97 % of control; under setting [11], 94 % of control.
Consider `O=S(=O)(c1ccccc1)N1CCCCN(S(=O)(=O)c2ccccc2)COC1`, for which the T/C was 104 % of control (dose: 50.0 mg/kg/injection, schedule: Q01DX005 (ip), vehicle: Klucel (hydroxypropylcellulose) (HPC)); 102 % of control (dose: 100.0 mg/kg/injection, schedule: Q01DX005 (ip), vehicle: Klucel (hydroxypropylcellulose) (HPC)); 102 % of control (dose: 200.0 mg/kg/injection, schedule: Q01DX005 (ip), vehicle: Klucel (hydroxypropylcellulose) (HPC)).
On to `CC1=NC2=NC(CCCC(=O)OCc3ccc(Cl)c(Cl)c3)=NC3=CC=CC(=N1)N32`, for which the T/C was 101 % of control (dose: 25.0 mg/kg/injection, schedule: Q01DX009 (ip), vehicle: saline with Tween-80); 111 % of control under setting [5]; 95 % of control under setting [6].
As for `N=C(N)SCC[n+]1cccc2cccc(O)c21`, the T/C is 98 % of control (dose: 100.0 mg/kg/injection, schedule: Q04DX002 (ip), vehicle: saline) and 100 % of control (dose: 200.0 mg/kg/injection, schedule: Q04DX002 (ip), vehicle: saline).
Regarding `Nc1nc(N)c2cc(S(=O)(=O)c3cccc(C(F)(F)F)c3)ccc2n1`, the T/C is, setting by setting: under setting [5], 113 % of control; under setting [6], 117 % of control; under setting [12], 106 % of control.
Take `CSCCC1NC(=O)C(C(C)=Nc2ccccc2)=C1O` (stereo not given): the T/C was 94 % of control under setting [5], 92 % of control under setting [6], 98 % of control under setting [12] and 99 % of control under setting [7].
Consider `N#Cc1ncc(C(Cl)Cl)nc1Cl`, for which the T/C runs as follows: under setting [11], 108 % of control; (dose: 50.0 mg/kg/injection, schedule: Q01DX009 (ip), vehicle: saline) 106 % of control.
With `N=C(N)c1ccc2oc(/C=C/c3nc4ccc(C(=N)N)cc4[nH]3)cc2c1`, the T/C under setting [9] is 98 % of control; the T/C under setting [10] is 96 % of control; the T/C (dose: 400.0 mg/kg/injection, schedule: Q01DX001 (ip), vehicle: Klucel (hydroxypropylcellulose) (HPC)) was 98 % of control.
In the case of `CCn1cc(C(=O)O)c(=O)c2nc(N3CCOCC3)sc21`, the T/C is, setting by setting: (dose: 60.0 mg/kg/injection, schedule: Q01DX005 (ip), vehicle: saline with Tween-80) 106 % of control; (dose: 120.0 mg/kg/injection, schedule: Q01DX005 (ip), vehicle: saline with Tween-80) 95 % of control; (dose: 240.0 mg/kg/injection, schedule: Q01DX005 (ip), vehicle: saline with Tween-80) 98 % of control.
For `N#CSCc1cc(Cl)c(Cl)cc1Cl`, the T/C is 106 % of control (dose: 25.0 mg/kg/injection, schedule: Q04DX002 (ip), vehicle: saline with Tween-80); 106 % of control (dose: 50.0 mg/kg/injection, schedule: Q04DX002 (ip), vehicle: saline with Tween-80); 107 % of control (dose: 100.0 mg/kg/injection, schedule: Q04DX002 (ip), vehicle: Klucel (hydroxypropylcellulose) (HPC)); 100 % of control under setting [8].
Consider `O=C1c2ccc(Cl)cc2NC(O)c2cccn21` (stereo not given), for which the T/C (dose: 0.1 mg/kg/injection, schedule: Q01DX005 (ip), vehicle: water) was 99 % of control; the T/C (dose: 0.2 mg/kg/injection, schedule: Q01DX005 (ip), vehicle: water) was 98 % of control; the T/C (dose: 0.4 mg/kg/injection, schedule: Q01DX005 (ip), vehicle: water) is 98 % of control; the T/C (dose: 0.8 mg/kg/injection, schedule: Q01DX005 (ip), vehicle: water) was 100 % of control; the T/C (dose: 1.6 mg/kg/injection, schedule: Q01DX005 (ip), vehicle: water) was 98 % of control; the T/C (dose: 5.0 mg/kg/injection, schedule: Q01DX005 (ip), vehicle: distilled water + Tween-80) was 95 % of control. Also, the T/C is 99 % of control (dose: 10.0 mg/kg/injection, schedule: Q01DX005 (ip), vehicle: distilled water + Tween-80); 100 % of control (dose: 20.0 mg/kg/injection, schedule: Q01DX005 (ip), vehicle: distilled water + Tween-80); 93 % of control (dose: 40.0 mg/kg/injection, schedule: Q01DX005 (ip), vehicle: distilled water + Tween-80); 98 % of control (dose: 80.0 mg/kg/injection, schedule: Q01DX005 (ip), vehicle: distilled water + Tween-80).
Turning to `CN(N=O)c1ccc(/C=C/c2ccnc3ccccc23)cc1`, the T/C (dose: 88.0 mg/kg/injection, schedule: Q01DX009 (ip), vehicle: saline with Tween-80) was 113 % of control; the T/C (dose: 132.0 mg/kg/injection, schedule: Q01DX009 (ip), vehicle: saline with Tween-80) is 118 % of control; the T/C under setting [12] was 154 % of control.
